ChEMBL document CHEMBL5576056, “Design, synthesis and biological evaluation of novel quinazoline derivatives as immune checkpoint inhibitors” (Bioorg Med Chem Lett, 2024)
Calls of active or inactive are those of the source. The calls are words filed in the database; no cut-off is given here.

Assays:
A2780 [1] = experiment: Induction of apoptosis in human A2780 cells assessed as increase in cleaved caspase-3 level at IC50 concentration incubated for 72 hrs by immunoblotting analysis; format: functional, cell-based
A2780 [2] = experiment: Cytotoxicity against cisplatin resistant human A2780 cells assessed as reduction in cell viability at IC50 concentration incubated for 72 hrs in presence of cisplatin by CCK-8 method; format: functional, cell-based
[3] = Cytotoxicity against HK-2 cells; format: toxicity, cell-based; settings: human
A2780 [4] = experiment: Reduction in IDO1 level in human A2780 cells at IC50 concentration incubated for 72 hrs by immunoblotting analysis; format: functional, cell-based
A2780 [5] = experiment: Antiproliferative activity against human A2780 cells assessed as cell viability incubated for 72 hrs by CCK8 assay; format: functional, cell-based; settings: A2780, 72 h
[6] = Cytotoxicity against non-cancerous fallopian tube ovarian cell (unknown origin); format: toxicity, cell-based; settings: non-cancerous fallopian tube ovarian cells
A2780 [7] = experiment: Inhibition of tumor sphere formation in human A2780 cells at IC50 concentration; format: functional, cell-based
A2780 [8] = experiment: Antiproliferative activity against human A2780 cells assessed as cell viability at 50 uM incubated for 72 hrs by CCK8 assay; format: functional; settings: read-out: Activity
A2780 [9] = experiment: Downregulation of Nanog expression in human A2780 cells at IC50 concentration; format: functional, cell-based
A2780 [10] = experiment: Downregulation of Sox2 expression in human A2780 cells at IC50 concentration; format: functional, cell-based
A2780 [11] = experiment: Induction of apoptosis in human A2780 cells assessed as increase in cleaved caspase-8 level at IC50 concentration incubated for 72 hrs by immunoblotting analysis; format: functional, cell-based
A2780 [12] = experiment: Downregulation of Oct4 expression in human A2780 cells at IC50 concentration; format: functional, cell-based
A2780 [13] = experiment: Reduction in PD-L1 expression in human A2780 cells at IC50 concentration incubated for 72 hrs by immunoblotting analysis; format: functional, cell-based
A2780 [14] = experiment: Downregulation of CD133 expression in human A2780 cells at IC50 concentration; format: functional, cell-based
A2780 [15] = experiment: Induction of apoptosis in human A2780 cells assessed as increase in cytochrome C release at IC50 concentration incubated for 72 hrs by immunoblotting analysis; format: functional, cell-based
A2780 [16] = experiment: Induction of apoptosis in human A2780 cells assessed as increase in cleaved PARP level at IC50 concentration incubated for 72 hrs by immunoblotting analysis; format: functional, cell-based
A2780 [17] = experiment: Induction of apoptosis in human A2780 cells assessed as increase in cleaved caspase-9 level at IC50 concentration incubated for 72 hrs by immunoblotting analysis; format: functional, cell-based
A2780 [18] = experiment: Induction of apoptosis in human A2780 cells assessed as increase in mature AIF expression at IC50 concentration incubated for 72 hrs by immunoblotting analysis; format: functional, cell-based
A2780 [19] = experiment: Inhibition of tumor sphere formation in human A2780 cells assessed as reduction in diameter of the sphere at IC50 concentration (Rvb > 200 micrometer); format: functional

IC50 (A2780 [5]) | SMILES | Activity (A2780 [1]) | Activity (A2780 [2]) | IC50 [3] | Activity (A2780 [4]) | IC50 [6] | inhibition (A2780 [7]) | viability at 50 µM (A2780 [8]) | Activity (A2780 [9]) | Activity (A2780 [10]) | Activity (A2780 [11]) | Activity (A2780 [12]) | Activity (A2780 [13]) | Activity (A2780 [14]) | Activity (A2780 [15]) | Activity (A2780 [16]) | Activity (A2780 [17]) | Activity (A2780 [18]) | Activity (A2780 [19])
5.68 µM | O=C(Nc1ccc(Cl)cc1)C1CCN(c2ncnc3ccccc23)CC1 | Active | Active | > 50 µM | Active | > 50 µM | Active | 26% | Active | Active | Active | Active | Active | Active | Active | Active | – | – | –
> 50 µM | O=C(Nc1ccccc1)C1CCN(c2ncnc3ccccc23)CC1 | – | – | > 50 µM | – | > 50 µM | – | 42% | – | – | – | – | – | – | – | – | – | – | –
22.6 µM | O=C(Nc1ccccc1Cl)C1CCN(c2ncnc3ccccc23)CC1 | Active | – | > 50 µM | Active | > 50 µM | Active | 30% | Active | Active | Active | Active | Active | Active | Active | Active | Active | Active | –
– | O=C(Nc1ccc(F)cc1)C1CCN(c2ncnc3ccccc23)CC1 | – | – | – | – | – | – | 68% | – | – | – | – | – | – | – | – | – | – | –
14.9 µM | Nc1nonc1C(=NO)Nc1ccc(F)c(Cl)c1 | – | – | 30.8 µM | – | 18.4 µM | – | – | – | – | – | – | – | – | – | – | – | – | –
12.2 µM | O=C(Nc1cccc(Cl)c1)C1CCN(c2ncnc3ccccc23)CC1 | Active | – | > 50 µM | Active | > 50 µM | Active | 22% | Active | Active | Active | Active | Active | Active | Active | Active | Active | – | –
– | O=C(Nc1cccc2c1OCCO2)C1CCN(c2ncnc3ccccc23)CC1 | – | – | – | – | – | – | 64% | – | – | – | – | – | – | – | – | – | – | –
– | O=C(Nc1ccccc1F)C1CCN(c2ncnc3ccccc23)CC1 | – | – | – | – | – | – | 52% | – | – | – | – | – | – | – | – | – | – | –
– | COc1ccc(NC(=O)C2CCN(c3ncnc4ccccc34)CC2)c(OC)c1 | – | – | – | – | – | – | 60% | – | – | – | – | – | – | – | – | – | – | –
– | O=C(Nc1ccc(I)cc1F)C1CCN(c2ncnc3ccccc23)CC1 | – | – | – | – | – | – | 76% | – | – | – | – | – | – | – | – | – | – | –
10.8 µM | O=C(Nc1ccc(Br)cc1)C1CCN(c2ncnc3ccccc23)CC1 | – | – | > 50 µM | Active | > 50 µM | Active | 28% | Active | Active | Active | Active | Active | Active | – | – | – | Active | –
– | O=C(Nc1cccc(F)c1)C1CCN(c2ncnc3ccccc23)CC1 | – | – | – | – | – | – | 58% | – | – | – | – | – | – | – | – | – | – | –
4.95 µM | O=C(Nc1ccc([N+](=O)[O-])cc1)C1CCN(c2ncnc3ccccc23)CC1 | Active | – | > 50 µM | Active | > 50 µM | Active | 33% | Active | inactive | – | – | Active | Active | Active | Active | – | Active | –
9.91 µM | COc1ccc(NC(=O)C2CCN(c3ncnc4ccccc34)CC2)cc1 | Active | – | > 50 µM | Active | > 50 µM | – | 27% | Active | inactive | – | – | Active | Active | Active | Active | – | Active | <200 um
– | O=C(Nc1ccc(F)c(Cl)c1)C1CCN(c2ncnc3ccccc23)CC1 | – | – | – | – | – | – | 53% | – | – | – | – | – | – | – | – | – | – | –
